Reference: PubChem BioAssay (NCI)
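48-hour exposure; five concentrations; linearly interpolated endpoints. TGI denotes the concentration required for complete inhibition of growth.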

Assays:
Experiment in all cases: NCI-60 cell line screen, 48 h
[1] = test system: A549 NSCLC
[2] = test system: HOP-92 NSCLC
[3] = test system: SF-295 CNS
[4] = test system: NCI-H226 lung
[5] = test system: A498 renal

Row | SMILES | TGI [1] | TGI [2] | TGI [3] | TGI [4] | TGI [5]
1 | COCCNC1CCC2(SCCS2)c2[nH]c3ccccc3c21 (stereo unspecified) | > 100 µM | 50.3 µM | > 100 µM | > 100 µM | 86.1 µM
2 | CCCCNC(=S)Nc1nc(C(=O)NNC(=O)c2ccccc2)cs1 | 55.2 µM | > 100 µM | 33.9 µM | 67.8 µM | 79.3 µM
3 | C#CCCCC(=O)N(C(=O)CS(=O)CC)c1ccccc1 (stereo unspecified) | > 100 µM | > 100 µM | > 100 µM | > 100 µM | 
4 | OCC(O)C(O)C(O)C(O)/C=N/Nc1nc(O)c(/C=C2\C=Nc3ccccc32)[nH]1 (stereo unspecified) | > 100 µM | > 100 µM | > 100 µM | > 100 µM | > 100 µM
5 | OC(c1ccccc1)(c1cccnc1)C(O)(c1ccccc1)c1cccnc1 (stereo unspecified) | > 100 µM | > 100 µM | > 100 µM | > 100 µM | 
6 | CN(C)CCn1nc(N)c2nc3cc(C(F)(F)F)ccc3nc21 | > 100 µM | > 100 µM | > 100 µM | > 100 µM | > 100 µM
7 | OC1c2ccccc2C(O)C2OC12 (stereo unspecified) | > 100 µM | > 100 µM | > 100 µM | > 100 µM | > 100 µM
8 | CC[C@H](C)C1=C(OC(C)=O)[N@+]2([O-])Oc3ccc(-c4c(OC(C)=O)c(OC(C)=O)c(-c5ccc(OC(C)=O)cc5)c(OC(C)=O)c4OC(C)=O)cc3O[C@]2([C@@H](C)CC)C(=O)N1OC(C)=O | 41.6 µM |  | 27.1 µM | > 50 µM | 42.5 µM
9 | C=CCC(CNC(=O)OCc1ccccc1)OC(=O)OCc1ccccc1 (stereo unspecified) | > 100 µM | > 100 µM | > 100 µM | > 100 µM | > 100 µM
10 | NCCCC[C@H](N)C(=O)Nc1ccc(-c2nc3ccccc3s2)cc1Cl | 9.08 µM | 60 µM | 10.2 µM | 4.62 µM | 2.07 µM
11 | CCN(CC)CCC(=O)c1ccc(Oc2ccc(F)cc2)cc1 | > 100 µM | 34 µM | > 100 µM | > 100 µM | 
12 | O=C1c2cc([N+](=O)[O-])sc2C(=O)c2ccsc21 | 3.51 µM | 0.443 µM | 0.993 µM | 3.09 µM | 4.37 µM
13 | O=[N+]([O-])c1cc(Cl)ccc1S(=O)(=O)N1CCCc2cc(Cl)ccc21 | > 100 µM | > 100 µM | > 100 µM | > 100 µM | > 100 µM
14 | Cc1ccc2c(=O)c(-c3n[nH]c(=S)s3)c[nH]c2n1 | > 100 µM |  | > 100 µM | > 100 µM | > 100 µM
15 | COc1cc2c(c(OC)c1OC)-c1ccc(SC)cc1C(=O)CC2 | > 100 µM | > 100 µM | > 100 µM |  | 
16 | N=C(c1cccs1)C1(N2CCCCC2)CCCCC1 | 60.2 µM | 37.5 µM | 39.7 µM |  | 34 µM
17 | COc1ccc(N2C(=O)C3CC4=CC(=O)C[C@H]4[C@H]32)cc1 (stereo partly specified) | > 100 µM |  | > 100 µM | > 100 µM | > 100 µM
